Measured values published in paper PMC6359037, “Effects of Piperazine Derivative on Paclitaxel Pharmacokinetics” (Pharmaceutics, 2019).
Read-outs that look alike come from different tables or passages of the source.

How the values were obtained:
MCF-7/ADR cells [1] = test: Cytotoxicity (toxic effect) of each piperazine derivative alone, SRB assay; type: cell-based, human; conditions: 2 h incubation
Description: The MDR human breast cancer cell line MCF-7/ADR was maintained in RPMI 1640, supplemented with 2 mM L-glutamine, 10 mM HEPES, 24 mM NaHCO3, 10% fetal bovine serum, and 1% antibiotic-antimycotic agent at 37 °C in a humidified 5% CO2 atmosphere.
(§1) The cytotoxicity of each piperazine derivative was examined in the cells using the sulforhodamine B (SRB) assay. The changes in IC50 values of DNM, P-gp substrate anticancer drug were estimated in the presence of piperazine derivatives at a concentration of 100 μM. The details of the cytotoxicity assay were described in our previous report. […] The IC50 values were calculated with the Table Curve Windows program. The assay was performed in triplicate.

[2] = set-up: method as in doi:10.1016/S0378-5173(98)00188-4; conditions: cited from earlier work
P-glycoprotein (P-gp) = tested on: P-glycoprotein (P-gp); set-up: method as in PMID 12608532; conditions: cited from earlier work
[3] = PTX pharmacokinetics in rats, alone or orally co-administered with compound 4; type: in vivo, Sprague-Dawley rats; conditions: for AUC(0-inf): read-out: AUCinf of PTX; for k el: read-out: ke of PTX (converted); for half-life: read-out: t1/2 of PTX (converted)
Description: All the animal experiments were performed using six-week-old male Sprague-Dawley rats (200–235 g) under the procedures granted by the Ewha Womans University Institutional Animal Care and Use Committee (IACUC) (No. 2012-01-019), Korea.
PTX at 2 mg/mL was prepared immediately prior to use with a commercial formulation of Taxol® (Cremophor® EL, anhydrous ethanol and isotonic saline (1:1:4, v/v/v)). Compound 4 (N-(4-(4-bromophenyl)thiazol-2-yl)-2-(N-(2-(4-((4-chlorophenyl)(phenyl)methyl)piperazin-1-yl)-2-oxoethyl)acetamido)acetamide) was prepared using a process similar to PTX formulation for oral administration.
For intravenous injection of 2 mg/kg of PTX (IV) and oral administration of 25 mg/kg of PTX (PO) with 0, 2, or 5 mg/kg of compound 4, the rats were divided into 4 groups on the day. The common carotid artery was catheterized for blood sampling. Blood sampling was conducted at 0, 0.033, 0.083, 0.25, 0.5, 1, 2, 3, 4, 6, 10, and 24 h for the IV group and 0, 0.25, 0.5, 1, 2, 3, 4, 6, 8, 10, and 24 h for PO groups.
Prepared plasma samples mixed with internal standard (4-hydroxybenzoic acid n-hexyl ester) were analyzed by the HPLC system.
WinNonlin® Professional version 5.2 software (Pharsight Corporation, Mountain View, CA, USA) was used to estimate the PK parameters following intravenous or oral PTX administrations to the rats. Non-compartmental analysis was performed using the plasma PTX concentration–time profiles to obtain the following PK parameters: Area under the plasma concentration–time curve from zero time to infinity (AUCinf), elimination half-life (t1/2), apparent volume of distribution after oral administration (Vz/F), and oral clearance (Cl/F). The maximum plasma concentration (Cmax) and the time required to reach Cmax (Tmax) were directly measured from the plasma PTX concentration–time curve. The absolute BA and relative BA (AB and RB, respectively) of PTX were calculated using the respective formulas below:AB (%) = AUC po/AUC iv × IV dose/PO dose × 100 RB (%) = AUC po co–administration/AUC po control × 100

human P-gp membrane = human P-gp membrane (Homo sapiens, UniProt P08183); test: P-glycoprotein ATPase activity assay; conditions: 100 μM
Sequence of human P-gp membrane (P08183 whole entry): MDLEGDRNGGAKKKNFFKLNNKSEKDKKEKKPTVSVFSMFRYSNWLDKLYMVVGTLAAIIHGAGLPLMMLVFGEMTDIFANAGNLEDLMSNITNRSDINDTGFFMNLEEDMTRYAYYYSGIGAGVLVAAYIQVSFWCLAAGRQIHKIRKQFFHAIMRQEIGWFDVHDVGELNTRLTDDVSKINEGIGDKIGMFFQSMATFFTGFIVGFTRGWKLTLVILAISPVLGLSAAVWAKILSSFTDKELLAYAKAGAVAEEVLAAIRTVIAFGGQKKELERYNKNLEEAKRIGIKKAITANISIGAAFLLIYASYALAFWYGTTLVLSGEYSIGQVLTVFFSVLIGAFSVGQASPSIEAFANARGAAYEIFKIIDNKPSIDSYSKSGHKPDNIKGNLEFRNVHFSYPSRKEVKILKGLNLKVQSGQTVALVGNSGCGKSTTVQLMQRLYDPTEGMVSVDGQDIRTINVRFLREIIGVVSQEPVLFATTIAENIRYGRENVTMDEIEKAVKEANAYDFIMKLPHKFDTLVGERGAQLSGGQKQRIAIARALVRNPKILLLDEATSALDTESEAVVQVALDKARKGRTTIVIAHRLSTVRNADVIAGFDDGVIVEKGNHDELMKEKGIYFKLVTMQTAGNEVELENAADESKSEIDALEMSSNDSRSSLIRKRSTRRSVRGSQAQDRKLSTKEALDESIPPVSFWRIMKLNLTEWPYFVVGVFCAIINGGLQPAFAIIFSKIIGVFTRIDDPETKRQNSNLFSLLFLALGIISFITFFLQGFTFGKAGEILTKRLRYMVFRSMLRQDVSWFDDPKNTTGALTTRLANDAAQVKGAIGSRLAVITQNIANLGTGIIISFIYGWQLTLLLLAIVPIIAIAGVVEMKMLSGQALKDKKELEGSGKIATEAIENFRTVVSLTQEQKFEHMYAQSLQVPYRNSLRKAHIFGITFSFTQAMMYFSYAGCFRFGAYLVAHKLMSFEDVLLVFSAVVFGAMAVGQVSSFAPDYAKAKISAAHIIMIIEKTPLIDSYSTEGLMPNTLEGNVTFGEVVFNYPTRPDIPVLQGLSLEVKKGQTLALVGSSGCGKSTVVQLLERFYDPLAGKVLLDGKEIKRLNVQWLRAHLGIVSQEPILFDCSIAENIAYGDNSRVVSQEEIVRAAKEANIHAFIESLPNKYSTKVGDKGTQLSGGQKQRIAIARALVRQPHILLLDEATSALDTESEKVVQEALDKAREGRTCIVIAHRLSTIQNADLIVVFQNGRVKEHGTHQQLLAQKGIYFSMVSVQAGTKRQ
Description: The rate of phosphate release per mg membrane protein represented the ATPase activity by converting to the relative ratio versus control value.

P-gp = biological target: T1, P-gp (Homo sapiens, UniProt P08183); test: [3H]-DNM efflux study in P-gp overexpressing cells; type: cell-based; conditions: control: tritium-labeled DNM alone, 1 h, MCF-7/ADR cells
T1 construct: uptake (A) and efflux (B) of [^3H]-DNM in MCF-7/ADR cells; endogenous in cells; host or cells: MCF-7/ADR
T1 sequence (P08183 whole entry): as above
Description: Tritium-labeled P-gp substrate uptake and efflux studies were performed using the modified Harker and Sikic method. […] For the efflux study, cells were incubated with 0.05 μM tritium-labeled DNM for 1 h and subsequently in the absence or presence of 100 μM of pre-selected derivatives for another 1 h after removing 0.05 μM of the tritium-labeled DNM. The uptake and efflux values based on the radioactivity estimated by Liquid Scintillation Counting were normalized to those of 1 × 10^6 cells. The detailed procedures have been reported previously.

MCF-7/ADR cells [4] = test: Cytotoxicity assay (SRB): change of DNM IC50 in the presence of piperazine derivatives; type: cell-based; conditions: Homo sapiens, NCI/ADR-RES, DNM alone (negative control)
Description: as §1, with “The changes in IC50 values of DNM, P-gp substrate anticancer drug were estimated in the presence of piperazine derivatives at a concentration of 100 μM.” left out

MES-SA/Dx5 = tested on: MES-SA/Dx5; set-up: method as in PMID 19275716; conditions: xenograft mice with MES-SA/Dx5 (P-gp overexpressed) vs parental cells; cited from earlier work
[5] = PTX 25 mg/kg PO alone (oral control)
[6] = male, Sprague-Dawley, rat, plasma, PTX 2 mg/kg IV (IV control)
[7] = male, Sprague-Dawley, rat, plasma, PTX 25 mg/kg PO alone (oral control)

Structure (SMILES)	cell survival ratio (MCF-7/ADR cells [1]; 5 μM)	cell survival ratio (MCF-7/ADR cells [1]; 10 μM)	cell survival ratio (MCF-7/ADR cells [1]; 25 μM)	cell survival ratio (MCF-7/ADR cells [1]; 50 μM)	cell survival ratio (MCF-7/ADR cells [1]; 100 μM)	other results
COc1ccc(CNC(=O)CN(CC(=O)N2CCN(C(c3ccccc3)c3ccc(Cl)cc3)CC2)C(=O)c2ccccc2)cc1 (stereo not shown) [Compound 5]	101.71	87.22	83.46	83.84	81.94	–
O=C(CN(CC(=O)N1CCN(C(c2ccccc2)c2ccc(Cl)cc2)CC1)C(=O)c1ccc2ccccc2c1)NCc1ccccc1 (stereo not shown) [Compound 1]	89.77	90.47	89.23	88.56	87.21	–
CC(C)(C)c1cc(NC(=O)CN(CC(=O)N2CCN(C(c3ccccc3)c3ccc(Cl)cc3)CC2)C(=O)c2ccccc2)no1 (stereo not shown) [Compound 6]	100.72	101.38	100.76	85.68	82.91	–
O=C(CN(CC(=O)N1CCN(C(c2ccccc2)c2ccc(Cl)cc2)CC1)C(=O)c1ccc2ccccc2c1)Nc1nc(-c2ccc(Cl)cc2)cs1 (stereo not shown) [Compound 3]	102.03	101.69	102.24	86.26	85.90	–
CC(=O)O[C@H]1C(=O)[C@@]2(C)[C@H]([C@H](OC(=O)c3ccccc3)[C@]3(O)C[C@H](OC(=O)[C@H](O)[C@@H](NC(=O)c4ccccc4)c4ccccc4)C(C)=C1C3(C)C)[C@]1(OC(C)=O)CO[C@@H]1C[C@@H]2O [PTX, Paclitaxel]	–	–	–	–	–	bioavailability of PTX [2]: below 10%; share of orally administered PTX excluded from the GI track by P-gp (P-glycoprotein (P-gp)): approximately 50%; AB (absolute BA) of PTX ([3]; PTX 2 mg/kg IV (IV control)): 100.0%; Cl/F of PTX ([3]; PTX 2 mg/kg IV (IV control)): 614 ± 123 mL/h; Vz/F of PTX ([3]; PTX 2 mg/kg IV (IV control)): 1754 ± 419 mL; AB (absolute BA) of PTX [3, 5]: 7.1%; Cl/F of PTX [3, 5]: 8721 ± 2040 mL/h; Cmax [3, 6]: 2970 ± 428 ng/mL; AUC(0-inf) [3, 6]: 835 ± 155 ng·h/mL; k el [3, 6]: 0.000103 s⁻¹; half-life [3, 6]: 2.06 ± 0.8 h; Cmax [3, 7]: 189 ± 76 ng/mL; Tmax [3, 7]: 2 h; AUC(0-inf) [3, 7]: 745 ± 208 ng·h/mL; Vd/F ([3]; male, Sprague-Dawley, rat, plasma, PTX 25 mg/kg PO alone (oral control), read-out: Vz/F of PTX): 40.6 L; k el [3, 7]: 6.47e-05 s⁻¹; half-life [3, 7]: 3.1 ± 0.8 h
O=C(CN(CC(=O)N1CCN(C(c2ccccc2)c2ccc(Cl)cc2)CC1)C(=O)Cc1ccccc1)Nc1nc(-c2ccc(Cl)cc2)cs1 (stereo not shown) [Compound 2]	102.70	102.87	86.94	86.10	87.75	P-gp ATPase activity compared to the control (human P-gp membrane): 1.3 fold; P-gp ATPase activity, ratio of the control (blank) (human P-gp membrane): 1.29
CC(=O)N(CC(=O)Nc1nc(-c2ccc(Br)cc2)cs1)CC(=O)N1CCN(C(c2ccccc2)c2ccc(Cl)cc2)CC1 (stereo not shown) [Compound 4, N-(4-(4-bromophenyl)thiazol-2-yl)-2-(N-(2-(4-((4-chlorophenyl)(phenyl)methyl)piperazin-1-yl)-2-oxoethyl)acetamido)acetamide]	100.76	98.50	96.14	96.90	87.63	P-gp ATPase activity compared to the control (human P-gp membrane): 1.2 fold; P-gp ATPase activity, ratio of the control (blank) (human P-gp membrane): 1.18
COc1cccc2c1C(=O)c1c(O)c3c(c(O)c1C2=O)C[C@@](O)(C(C)=O)C[C@@H]3O[C@H]1C[C@H](N)[C@H](O)[C@H](C)O1 [DNM, Daunomycin]	–	–	–	–	–	[3H]-DNM efflux (P-gp): 63.0 ± 3.3%; IC50 (MCF-7/ADR cells [4]): 31.7 µM
O=C(C(c1ccccc1)c1ccc([125I])cc1)N1CCN(CC(O)COc2cccc3ncccc23)CC1 (stereo not shown) [radio-iodinated piperazine derivative, 5-[3-{4-(2-phenyl-2-(4-[125I]iodo-phenyl)acetyl)piperazin-1-yl}-2-hydroxypropoxy] quinoline]	–	–	–	–	–	shortening of absorption half-life (MES-SA/Dx5): ~10 fold; shortening of mean residence time (MES-SA/Dx5): 50%
